Results reported in publication PMC7559897, “Designed Antimicrobial Peptides Against Trauma-Related Cutaneous Invasive Fungal Wound Infections” (Journal of Fungi, 2020).
Values after ≈ are worked out from the molar mass of the structure shown. Bridge positions count the residues as written; N and C are the ends. Square brackets hold non-standard residues; d marks the D form. Ends that are not written are not given here. Peptide text beside a SMILES is read from it. Orn = NCCC[C@H](N)C(=O)O

How the values were obtained:
A. baumannii 6043 = format: cell-based, Acinetobacter baumannii; settings: 6043, 24 h
Description: (§1) Assays were performed by Trideum Biosciences (Frederick, MD, USA). Isolates were thawed from −80 °C storage and sub-cultured on trypticase soy agar plates at 37 °C prior to experimentation. A single colony was aseptically picked from the agar plate and released in 30 mL trypticase soy broth and incubated overnight at 37 °C incubator. Following which the bacterial culture was diluted to approximately 10^6 colony forming units (CFU)/mL using 2X cation adjusted Mueller–Hinton broth and added to the dAMP solutions (0, 2, 4, 8, 16, 32, 64, and 128 μg/mL) which had been formulated in water at 256 μg/mL and then serially diluted in media on 96-well pates. For fungal evaluation, potato dextrose broth and potato dextrose agar plates were used. The treated cultures were then incubated for 24 h at 37 °C and pathogen growth was measured by absorbance at 600 nm. Four replicas were included for each dAMP concentration. Each MIC was assigned to the lowest test agent concentration resulting in at least three out of four wells showing no growth based on an optical density (OD) reading of <0.1.

A. baumannii ATCC 17978 = format: cell-based, Acinetobacter baumannii; settings: ATCC 17978, 24 h
Description: as §1

A. baumannii 6838 = format: cell-based, Acinetobacter baumannii; settings: 6838, 24 h
Description: as §1

MRSA ATCC 33592 = format: cell-based, Staphylococcus aureus; settings: ATCC 33592, 24 h
Description: as §1

S. aureus B-767 = format: cell-based, Staphylococcus aureus; settings: B-767, 24 h
Description: as §1

S. aureus 6061 = format: cell-based, Staphylococcus aureus; settings: 6061, 24 h
Description: as §1

MRSA 6381 = format: cell-based, Staphylococcus aureus; settings: 6381, 24 h
Description: as §1

MRSA 6313 = format: cell-based, Staphylococcus aureus; settings: 6313, 24 h
Description: as §1

P. aeruginosa ATCC 27853 = format: cell-based, Pseudomonas aeruginosa; settings: ATCC 27853, 24 h
Description: as §1

P. aeruginosa ATCC 19660 = format: cell-based, Pseudomonas aeruginosa; settings: ATCC 19660, 24 h
Description: as §1

P. aeruginosa 6186 = format: cell-based, Pseudomonas aeruginosa; settings: 6186, 24 h
Description: as §1

K. pneumonia 6069 = format: cell-based, Klebsiella pneumoniae; settings: 24 h
Description: as §1

K. pneumonia ATCC 10031 = format: cell-based, Klebsiella pneumoniae; settings: ATCC 10031, 24 h
Description: as §1

E. cloacae 6054 = format: cell-based; settings: 6054, 24 h
Description: as §1

[1] = system: Absidia corymbifera NRRL 6251; format: cell-based; settings: NRRL 6251, 24 h
Description: as §1

[2] = system: Aspergillus fumigatus 9651; format: cell-based; settings: 9651, 24 h
Description: as §1

[3] = system: Aspergillus flavus MYA-3651; format: cell-based; settings: 24 h
Description: as §1

Candida krusei Y-27825 = format: cell-based; settings: Y-27825, 24 h
Description: as §1

[4] = system: Aspergillus fumigatus 9648; format: cell-based; settings: 9648, 24 h
Description: as §1

S. epidermis ATCC 51625 = format: cell-based; settings: ATCC 51625, 24 h
Description: as §1

[5] = system: Candida parapsilosis Y-1761; format: cell-based; settings: Y-1761, 24 h
Description: as §1

E. cloacae 6053 = format: cell-based; settings: 6053, 24 h
Description: as §1

[6] = system: Aspergillus flavus MYA-1004; format: cell-based; settings: 24 h
Description: as §1

[7] = system: Mucor circinelloides NRRL 3631; format: cell-based; settings: NRRL 3631, 24 h
Description: as §1

[8] = system: Fusarium solani NRRL 28548; format: cell-based; settings: NRRL 28548, 24 h
Description: as §1

Candida albicans Y-6359 = format: cell-based; settings: Y-6359, 24 h
Description: as §1

[9] = system: Candida parapsilosis Y-1763; format: cell-based; settings: Y-1763, 24 h
Description: as §1

Candida krusei Y-27803 = format: cell-based; settings: Y-27803, 24 h
Description: as §1

Candida albicans Y-326 = format: cell-based; settings: Y-326, 24 h
Description: as §1

[10] = system: vulvovaginal candidiasis infection; settings: rats with vulvovaginal candidiasis, oral; cited from earlier work
From the text: The dAMPs RP504, RP554 and RP557 were thus tested for their ability to treat a rodent vulvovaginal candidiasis infection. […] A daily dose with a 2% concentration lowered the CFU/sample by more than 4 logs compared to the con ...

Compound	MIC against A. baumannii 6043 (A. baumannii 6043) [µg/mL]	MIC against A. baumannii ATCC 17978 (A. baumannii ATCC 17978) [µg/mL]	MIC against A. baumannii 6838 (A. baumannii 6838) [µg/mL]	MIC against MRSA ATCC 33592 (MRSA ATCC 33592) [µg/mL]	MIC against S. aureus B-767 (S. aureus B-767) [µg/mL]	MIC against S. aureus 6061 (S. aureus 6061) [µg/mL]	MIC against MRSA 6381 (MRSA 6381) [µg/mL]	MIC against MRSA 6313 (MRSA 6313) [µg/mL]	MIC against P. aeruginosa ATCC 27853 (P. aeruginosa ATCC 27853) [µg/mL]	MIC against P. aeruginosa ATCC 19660 (P. aeruginosa ATCC 19660) [µg/mL]	MIC against P. aeruginosa 6186 (P. aeruginosa 6186) [µg/mL]	MIC against K. pneumonia 6069 (K. pneumonia 6069) [µg/mL]	MIC against K. pneumonia ATCC 10031 (K. pneumonia ATCC 10031) [µg/mL]	MIC against E. cloacae 6054 (E. cloacae 6054) [µg/mL]	MIC against Absidia corymbifera NRRL 6251 [1] [µg/mL]	MIC against Aspergillus fumigatus 9651 [2] [µg/mL]	MIC against Aspergillus flavus MYA-3651 [3] [µg/mL]	MIC against Candida krusei Y-27825 (Candida krusei Y-27825) [µg/mL]	MIC against Aspergillus fumigatus 9648 [4] [µg/mL]	MIC against S. epidermis ATCC 51625 (S. epidermis ATCC 51625) [µg/mL]	further results
CSCC[C@@H]1NC(=O)[C@H](C(C)C)NC(=O)[C@H](C(C)C)NC(=O)[C@H](CC(C)C)NC(=O)[C@H](Cc2c[nH]c3ccccc23)NC(=O)[C@H](C(C)C)NC(=O)[C@@H](NC(=O)[C@H](Cc2c[nH]c3ccccc23)NC(=O)[C@@H](N)CCCNC(=N)N)CSSC[C@@H](C(=O)N[C@@H](CCCCN)C(=O)N[C@@H](CCCCN)C(N)=O)NC1=O [RP513] (H-RWCVWLVVMCKK-NH2; disulfide 3-10)	64 (≈ 41.3 µM)	>128	128 (≈ 82.7 µM)	>128	>128	>128	>128	>128	>128	>128	>128	128 (≈ 82.7 µM)	128 (≈ 82.7 µM)	>128	32 (≈ 20.7 µM)	>128	128 (≈ 82.7 µM)	64 (≈ 41.3 µM)	128 (≈ 82.7 µM)	>128	MIC against Candida parapsilosis Y-1761 [5]: >128 µg/mL; MIC against E. cloacae 6053 (E. cloacae 6053): >128 µg/mL; MIC against Aspergillus flavus MYA-1004 [6]: >128 µg/mL; MIC against Mucor circinelloides NRRL 3631 [7]: 32 µg/mL (≈ 20.7 µM); MIC against Fusarium solani NRRL 28548 [8]: 16 µg/mL (≈ 10.3 µM); MIC against Candida albicans Y-6359 (Candida albicans Y-6359): 64 µg/mL (≈ 41.3 µM); MIC against Candida parapsilosis Y-1763 [9]: >128 µg/mL; MIC against Candida krusei Y-27803 (Candida krusei Y-27803): 64 µg/mL (≈ 41.3 µM); MIC against Candida albicans Y-326 (Candida albicans Y-326): 64 µg/mL (≈ 41.3 µM)
FKLRAKIKVRLRAKIKL [D4E1, reference compound]	>128	16	8	8	4	8	8	8	16	32	16	16	32	4	2	64	128	64	128	4	MIC against Candida parapsilosis Y-1761 [5]: 64 µg/mL; MIC against E. cloacae 6053 (E. cloacae 6053): 8 µg/mL; MIC against Aspergillus flavus MYA-1004 [6]: 128 µg/mL; MIC against Mucor circinelloides NRRL 3631 [7]: 128 µg/mL; MIC against Fusarium solani NRRL 28548 [8]: 2 µg/mL; MIC against Candida albicans Y-6359 (Candida albicans Y-6359): 64 µg/mL; MIC against Candida parapsilosis Y-1763 [9]: 64 µg/mL; MIC against Candida krusei Y-27803 (Candida krusei Y-27803): 64 µg/mL; MIC against Candida albicans Y-326 (Candida albicans Y-326): 64 µg/mL
OC(Cn1cncn1)(Cn1cncn1)c1ccc(F)cc1F [fluconazole, reference compound]	–	–	–	–	–	–	–	–	–	–	–	–	–	–	–	–	–	–	–	–	reduction in tissue candidiasis infection (in words) [10]: non-significant reduction
CC[C@H](C)[C@H](NC(=O)[C@H](CCCN)NC(=O)[C@H](C)NC(=O)[C@H](CCCN)NC(=O)[C@H](CC(C)C)NC(=O)[C@H](CCCCN)NC(=O)[C@@H](NC(=O)[C@H](CCCCN)NC(=O)[C@@H](NC(=O)[C@H](CCCN)NC(=O)[C@H](C)NC(=O)[C@H](CCCN)NC(=O)[C@H](CC(C)C)NC(=O)[C@H](CCCN)NC(=O)[C@@H](N)Cc1ccccc1)[C@@H](C)CC)C(C)C)C(=O)N[C@@H](CCCN)C(=O)N[C@@H](CC(C)C)C(N)=O [RP555] (H-F[Orn]L[Orn]A[Orn]IKVKL[Orn]A[Orn]I[Orn]L-NH2)	16 (≈ 8.37 µM)	4 (≈ 2.09 µM)	4 (≈ 2.09 µM)	8 (≈ 4.18 µM)	8 (≈ 4.18 µM)	16 (≈ 8.37 µM)	16 (≈ 8.37 µM)	16 (≈ 8.37 µM)	4 (≈ 2.09 µM)	8 (≈ 4.18 µM)	4 (≈ 2.09 µM)	16 (≈ 8.37 µM)	4 (≈ 2.09 µM)	4 (≈ 2.09 µM)	4 (≈ 2.09 µM)	64 (≈ 33.5 µM)	128 (≈ 66.9 µM)	32 (≈ 16.7 µM)	64 (≈ 33.5 µM)	2 (≈ 1.05 µM)	MIC against Candida parapsilosis Y-1761 [5]: 32 µg/mL (≈ 16.7 µM); MIC against E. cloacae 6053 (E. cloacae 6053): 2 µg/mL (≈ 1.05 µM); MIC against Aspergillus flavus MYA-1004 [6]: >128 µg/mL; MIC against Mucor circinelloides NRRL 3631 [7]: 64 µg/mL (≈ 33.5 µM); MIC against Fusarium solani NRRL 28548 [8]: 2 µg/mL (≈ 1.05 µM); MIC against Candida albicans Y-6359 (Candida albicans Y-6359): 32 µg/mL (≈ 16.7 µM); MIC against Candida parapsilosis Y-1763 [9]: 16 µg/mL (≈ 8.37 µM); MIC against Candida krusei Y-27803 (Candida krusei Y-27803): 32 µg/mL (≈ 16.7 µM); MIC against Candida albicans Y-326 (Candida albicans Y-326): 32 µg/mL (≈ 16.7 µM)
